Our source for the IC50 values is ChEMBL document CHEMBL4715739, “7,7-Dimethylaporphine and Other Alkaloids from the Bark of Guatteria friesiana” (J Nat Prod, 2016).

One assay deals with B16-F10. Description: Cytotoxicity against mouse B16-F10 cells assessed as reduction in cell viability incubated for 72 hrs by Alamar blue assay. It counts as functional, cell-based. As to conditions: B16-F10, 72 h.
In the next assay the test system is HepG2. Nature of the assay: Cytotoxicity against human HepG2 cells assessed as reduction in cell viability incubated for 72 hrs by Alamar blue assay. It counts as functional, cell-based. As to conditions: HepG2, 72 h.
A further assay deals with HL-60. Description: Cytotoxicity against human HL-60 cells assessed as reduction in cell viability incubated for 72 hrs by Alamar blue assay. It counts as functional, cell-based. Conditions: HL-60, 72 h.
Another assay deals with K562. Description: Cytotoxicity against human K562 cells assessed as reduction in cell viability incubated for 72 hrs by Alamar blue assay. As to conditions: K562, 72 h. It counts as functional, cell-based.
The nature of assay [1]: Cytotoxicity against human PBMC cells assessed as reduction in cell viability incubated for 72 hrs by Alamar blue assay. It counts as cell-based.

Some results are limits rather than exact numbers.

Take `O=C1c2ccccc2-c2c3c(cc4ccnc1c24)OCO3` [LIRIODENINE]: the IC50 was above 10 µM in the assay with B16-F10; 8.3 µM in the assay on HepG2; 5.5 µM in the assay on HL-60; 5 µM in the assay on K562; 34.8 µM in assay [1].
In the case of `COc1cccc2c1C(=O)c1c(O)c3c(c(O)c1C2=O)C[C@@](O)(C(=O)CO)C[C@@H]3O[C@H]1C[C@H](N)[C@H](O)[C@H](C)O1` [DOXORUBICIN], the IC50 in the assay with B16-F10 was determined as 2.3 µM; in the assay with HepG2 it was 0.2 µM; in the assay on HL-60, 0.8 µM; in the assay with K562 it was 0.7 µM.
